This passage reports Activity results from ChEMBL document CHEMBL1154910, “Nitric oxide donors or nitrite counteract copper-[dithiocarbamate](2)-mediated tumor cell death and inducible nitric oxide synthase down-regulation: possible role of a nitrosyl-copper [dithiocarbamate](2) complex” (J Med Chem, 2010).

The structures appear in SMILES notation. Calls of active or inactive are those of the source. The calls are words filed in the database; no cut-off is given here.

Holding throughout (assay type): functional, cell-based
Test [1] relates to C8161. In words: Inhibition of [DEDTC]2-Cu-induced cytotoxicity against human C8161 cells at 50 uM.
The subject of test [2] is C8161. In words: Inhibition of [DEDTC]2-Cu-induced iNOS-down regulation human C8161 cells.
The test system of test [3] is SK-BR-3. In words: Inhibition of [DEDTC]2-Cu-induced apoptosis in human SK-BR-3 cells assessed as PARP-cleavage at 50 uM.
For test [4], the system named is SK-BR-3. Description: Inhibition of [DEDTC]2-Cu-induced cytotoxicity against human SK-BR-3 cells at 50 uM.

As for `NCCN(CCN)N(O)N=O`, the result in test [1] was Active.

`CC(=O)N[C@@H](C(=O)O)C(C)(C)SN=O`: the result in test [2], in test [3], in test [4] and in test [1] was Active.
